We go through 69 compounds from PubChem BioAssay AID1769 (NMMLSC, 2009).

The test addresses glutathione S-transferase (Schistosoma japonicum GST tag binding GSH beads). The test is described as follows: GST–glutathione bead interaction interference profiling – biochemical, multiplex beads, flow cytometry, profiling panel (AID 1769).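 Note: target is a GST and green fluorescent protein fusion captured on glutathione beads.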 Conditions: flow cytometry fluorescence.

Consider `CN1CCN(S(=O)(=O)c2cccc(C(=O)Nc3sc4c(c3C(N)=O)CCCC4)c2)CC1`, for which the concentration for a half-maximal effect (EC50) was 19.8 µM.
The value for `COc1ccccc1Nc1nc(-c2c(C)nc3ncccn23)cs1` was 12.2 µM.
For `COc1cccc2c(SCC(=O)N/N=C/c3ccc(O)cc3O)cc(C)nc12`, the concentration giving a half-maximal response (EC50) is 45.4 µM.
Next, `O=C(O)c1cc(-c2ccc(/C=C3\NC(=O)N(c4ccc(Cl)cc4)C3=O)o2)ccc1Cl`: 11.8 µM.
The value for `CCN(c1ccc(N=Cc2c(O)n(Cc3ccc(OC)cc3)c(=O)c3ccccc23)cc1)C(C)C` was 0.249 µM; that for `COc1cc(/C=N/Nc2ncnc3sc4c(c23)CCC4)ccc1O` was 14.4 µM.
Next, `O=C(CSc1ccc2nnc(-c3cccc(F)c3)n2n1)N1CCCc2ccccc21`: 0.16 µM; `COc1ccc(OC)c(S(=O)(=O)Nc2ccc(O)c(Sc3ncn[nH]3)c2)c1`: 4.38 µM.
For the compound `CCN(CC)c1ccc(/C=C(\C#N)C(=O)c2ccc(Br)cc2)cc1`, the EC50 is 11.1 µM.
The value for `O=C(N/N=C/c1ccc2nccnc2c1)c1cccc([N+](=O)[O-])c1` was 8.59 µM.
The value for `Cc1cccc(S(=O)(=O)c2c(N)n(/N=C/c3cccnc3)c3nc4ccccc4nc23)c1` was 3.42 µM; that for `CC(=O)Nc1ccc(Nc2ccc3c4c(cc(=O)n3C)-c3ccccc3C(=O)c24)cc1` was 0.151 µM; that for `COc1ccc2nc(C)cc(SCC(=O)N/N=C/c3ccc(O)c(O)c3)c2c1` was 15.7 µM.
The value for `COc1cc(/C=N/Nc2nc(C)nc3c2cnn3-c2ccccc2)ccc1O` was 0.638 µM.
With `Cn1c(SCCOc2ccccc2F)nc2ccccc2c1=O`, the 50% effective concentration (EC50) is 4.72 µM.
Next, `CCN1/C(=C/C=C/c2oc3ccc4ccccc4c3[n+]2CC)Oc2ccc3ccccc3c21`: 0.223 µM; `COc1cc2[nH]c(=S)nc(NCCc3ccc(C)cc3)c2cc1OC`: 0.334 µM.
Next, `Cn1cccc1/C=C1\SC(=S)N(NC(=O)c2ccccc2Cl)C1=O`: 51.7 µM; `Cc1nc(N/N=C/c2ccc(O)cc2)c2cnn(-c3ccccc3)c2n1`: 3.58 µM; `Nc1c(C(=O)C2CC2)sc2nc(-c3cccs3)cc(C(F)(F)F)c12`: 19.3 µM.
On to `COc1ccccc1CNC(=O)c1c(N)n(CCCN2CCOCC2)c2nc3ccccc3nc12`, for which the EC50 was 4.43 µM.
Consider `C=CCNc1nc(=S)[nH]c2cc(OC)c(OC)cc12`, for which the EC50 is 13.3 µM.
As to `Cc1cc(-c2nnc3n2N=C(c2ccc(-c4ccccc4)cc2)CS3)n[nH]1`, the EC50 was 6.8 µM.
Next, `COc1cc(OC)c(-c2c3cc(O)c(=O)cc-3oc3cc(O)c(O)cc23)cc1OC`: 0.258 µM.
For `NC(=O)c1cc2nc(-c3ccco3)cc(C(F)(F)F)n2n1`, the EC50 was 15.9 µM.
Next, `Cc1nc2ncccn2c1-c1csc(Nc2ccc(O)cc2)n1`: 0.265 µM; `COc1ccc(NC(=O)c2cc3nc(-c4ccccc4)cc(C)n3n2)cc1OC`: 2.85 µM; `CCNC(=S)N=Nc1c(O)[nH]c2ccc([N+](=O)[O-])cc12`: 1.93 µM.
As for `Cc1ccc(NC(=O)Nc2ccnc(-c3cccnc3)n2)cc1`, the EC50 was 2.07 µM.
Next, `CCn1cc(C(=O)O)c(=O)c2cc(F)c(N/N=C/c3ccccc3)cc21`: 3.88 µM.
The value for `O=c1c2ccccc2nc2c3ccccc3c(NCCO)nn12` was 3.55 µM; that for `COC(=O)c1cc(NC(=O)c2cccc(Cl)c2)c(=O)oc1/C=C/Nc1cc(C)cc(C)c1` was 0.567 µM.
The value for `O=C(Oc1c(Br)cc(C(=S)N2CCOCC2)cc1Br)c1ccc(Cl)cc1` was 2.97 µM; that for `O=[N+]([O-])c1ccc(/C=C/C2=NN(c3ccccc3)C(c3ccco3)C2)cc1` (centres undefined) was 1.34 µM.
On to `COc1ccc(C(=O)Nc2nc3ccccc3[nH]2)cc1S(=O)(=O)N1CCOCC1`, for which the concentration for a half-maximal effect (EC50) is 32.7 µM.
Next, `O=C(Nc1cccc(Cl)c1)Nc1ccnc(-c2cccnc2)n1`: 0.499 µM; `COc1ccc(S(=O)(=O)N2CCOCC2)cc1NC(=O)COc1cccnc1[N+](=O)[O-]`: 64 µM; `NC1=NC(=O)/C(=C/c2cn(CCC(=O)O)nc2-c2ccc(Cl)cc2)S1`: 29.2 µM.
Next, `CCOc1cc(/C=C2\SC(=O)N=C2N)ccc1O`: 2.47 µM; `O=C(NCc1cccnc1)c1cccn2c(=O)c3sccc3nc12`: 25.2 µM.
The value for `COc1ccc(-c2cc(=O)c(C(=O)c3ccc(C)cc3)n[nH]2)cc1` was 4.09 µM; that for `Oc1ccc(C2=Nn3c(nnc3-c3ccco3)SC2)cc1O` was 1.29 µM; that for `COc1cc(NC(=O)c2cccs2)c(OC)cc1NC(=O)CCC(=O)Nc1ccc2ncccc2c1` was 0.481 µM.
Regarding `COCCNC(=S)Nc1cc(OC)c(OC)cc1C#N`, the EC50 is 4.9 µM.
Next, `CCOC(=O)c1c2c3c(c(Cl)ccc3[nH]c1=O)C(=O)c1ccccc1-2`: 0.4 µM; `O=[N+]([O-])c1cc(-c2ncccn2)c([N+](=O)[O-])s1`: 7.57 µM; `O=S1(=O)N=C(N(CCO)/N=C/c2ccncc2)c2ccccc21`: 36.1 µM.
Next, `COc1cccc(N=Nc2c(N)[nH]n3c(=O)c4c(nc23)CCCC4)c1`: 1.22 µM; `O=C(O)c1cccc(-n2cccc2/C=C2/NC(=O)N(c3ccc(Cl)cc3)C2=O)c1`: 2.25 µM; `COc1cc(N2CCCC2)c(OC)cc1/C=C(/C#N)c1cccc(F)c1`: 1.71 µM.
Next, `O=C(C[n+]1cccc2ccccc21)c1ccc(NC(=O)c2ccccc2)cc1`: 10.2 µM; `O=C(CSc1ccc2nnc(-c3ccncc3)n2n1)Nc1nccs1`: 35.1 µM; `NC(=S)N=Nc1c(O)[nH]c2cc(F)c(F)cc12`: 15.6 µM.
With `N#Cc1ccc2ccn(CC(=O)N3CCCc4ccccc43)c2c1`, the EC50 is 2.4 µM.
The value for `COc1cc2nc(=S)n(CCCN3CCOCC3)c(N)c2cc1OC` was 11 µM; that for `O=C1/C(=C\c2ccc(-c3ccccc3Cl)o2)SC(=S)N1CC1CCCO1` (centres undefined) was 17.3 µM; that for `CC(=O)N1C(=O)/C(=C2\SC(=S)N(NC(=O)c3ccc(O)cc3)C2=O)c2ccccc21` was 4.13 µM.
Next, `CN(C)S(=O)(=O)c1ccc(C(=O)NNc2nc(-c3ccccc3)c3cc(Br)ccc3n2)cc1`: 4.9 µM.
With `CN(/N=C/c1ccco1)C1=NS(=O)(=O)c2ccccc21`, the half-maximal effective concentration (EC50) is 2.54 µM.
Consider `O=c1c2ccccc2nc2c3ccccc3c(Cl)nn12`, for which the EC50 is 2.04 µM.
The value for `O=C(N/N=C/c1ccco1)c1ccc(C(=O)N/N=C/c2ccco2)o1` was 19.4 µM.
Next, `COc1cc(N2CCCC2)c(OC)cc1/C=C(/C#N)c1ccc(Br)cc1`: 0.0745 µM; `O=C(CSc1ccc2nnc(-c3cccs3)n2n1)N1CCCC1`: 1.3 µM; `O=c1c2ccccc2nc2c3ccccc3c(NCc3cccnc3)nn12`: 0.348 µM.
Next, `Cc1cccc(/C=N/N(CCO)C2=NS(=O)(=O)c3ccccc32)c1`: 60.2 µM; `O=C(COC(=O)c1ccc2c(c1[N+](=O)[O-])C(=O)c1ccccc1C2=O)NC1CC1`: 28 µM; `COc1ccc(/C=N/NC(=O)c2ccncc2)cc1Cn1nc([N+](=O)[O-])c(Br)c1C`: 9.22 µM.
In the case of `CN(/N=C/c1cccnc1)C1=NS(=O)(=O)c2ccccc21`, the half-maximal effective concentration (EC50) is 5.05 µM.
Next, `CSc1nc2ccc(NC(=O)C3CC(=O)N(Cc4ccco4)C3)cc2s1` (centres undefined): 46.9 µM.

Usually EC50 stands for the concentration at which the effect is half-maximal.
